Converted amounts (≈) assume the structure as drawn.

What all share (type): functional
The subject of assay [1] is Bemisia tabaci. The experiment in a line: Cross resistant, ratio of LC50 for B-biotype thiamethoxam-resistant Bemisia tabaci (sweet potato whitefly) to LC50 for B-biotype thiamethoxam-sensitive Bemisia tabaci (sweet potato whitefly).
Assay [2] relates to Bemisia tabaci. The assay is described as follows: Insecticidal activity against B-biotype thiamethoxam-resistant Bemisia tabaci (sweet potato whitefly) in cabbage leaf assessed as mortality after 48 hr by leaf disk assay. Conditions: foliar.
Assay [3] has as its system Bemisia tabaci. The experiment in a line: Insecticidal activity against B-biotype thiamethoxam-sensitive Bemisia tabaci (sweet potato whitefly) in cabbage leaf assessed as mortality after 48 hr by leaf disk assay. To be noted: foliar.
Assay [4] concerns Bemisia tabaci. The assay is described as follows: Synergism ratio, Ratio of LC50 for B-biotype thiamethoxam-resistant Bemisia tabaci (sweet potato whitefly) to LC50 for B-biotype thiamethoxam-resistant Bemisia tabaci (sweet potato whitefly) in presence of diethylmaleate.
The subject of assay [5] is Bemisia tabaci. The experiment in a line: Synergism ratio, Ratio of LC50 for B-biotype thiamethoxam-resistant Bemisia tabaci (sweet potato whitefly) to LC50 for B-biotype thiamethoxam-resistant Bemisia tabaci (sweet potato whitefly) in presence of triphenyl phosphate.
Assay [6] relates to Bemisia tabaci. The assay is described as follows: Synergism ratio, Ratio of LC50 for B-biotype thiamethoxam-resistant Bemisia tabaci (sweet potato whitefly) to LC50 for B-biotype thiamethoxam-resistant Bemisia tabaci (sweet potato whitefly) in presence of piperonyl butoxide.
Assay [7] concerns Bemisia tabaci. The assay is described as follows: Synergism ratio, Ratio of LC50 for B-biotype thiamethoxam-sensitive Bemisia tabaci (sweet potato whitefly) to LC50 for B-biotype thiamethoxam-sensitive Bemisia tabaci (sweet potato whitefly) in presence of diethylmaleate.
In assay [8] the test system is Bemisia tabaci. The assay is described as follows: Synergism ratio, Ratio of LC50 for B-biotype thiamethoxam-sensitive Bemisia tabaci (sweet potato whitefly) to LC50 for B-biotype thiamethoxam-sensitive Bemisia tabaci (sweet potato whitefly) in presence of triphenyl phosphate.
Assay [9] concerns Bemisia tabaci. The experiment in a line: Synergism ratio, Ratio of LC50 for B-biotype thiamethoxam-sensitive Bemisia tabaci (sweet potato whitefly) to LC50 for B-biotype thiamethoxam-sensitive Bemisia tabaci (sweet potato whitefly) in presence of piperonyl butoxide.
For assay [10], the system named is Bemisia tabaci. The assay is described as follows: Insecticidal activity against B-biotype thiamethoxam-resistant Bemisia tabaci (sweet potato whitefly) in cabbage leaf assessed as mortality after 48 hr by leaf disk assay in presence of diethylmaleate. To be noted: foliar.
Assay [11] deals with Bemisia tabaci. The experiment in a line: Insecticidal activity against B-biotype thiamethoxam-resistant Bemisia tabaci (sweet potato whitefly) in cabbage leaf assessed as mortality after 48 hr by leaf disk assay in presence of triphenyl phosphate. Conditions: foliar.
The test system of assay [12] is Bemisia tabaci. The assay is described as follows: Insecticidal activity against B-biotype thiamethoxam-resistant Bemisia tabaci (sweet potato whitefly) in cabbage leaf assessed as mortality after 48 hr by leaf disk assay in presence of piperonyl butoxide. Conditions: foliar.
Assay [13] concerns Bemisia tabaci. The experiment in a line: Insecticidal activity against B-biotype thiamethoxam-sensitive Bemisia tabaci (sweet potato whitefly) in cabbage leaf assessed as mortality after 48 hr by leaf disk assay in presence of diethylmaleate. To be noted: foliar.
Assay [14] deals with Bemisia tabaci. The assay is described as follows: Insecticidal activity against B-biotype thiamethoxam-sensitive Bemisia tabaci (sweet potato whitefly) in cabbage leaf assessed as mortality after 48 hr by leaf disk assay in presence of triphenyl phosphate. To be noted: foliar.
The subject of assay [15] is Bemisia tabaci. The experiment in a line: Insecticidal activity against B-biotype thiamethoxam-sensitive Bemisia tabaci (sweet potato whitefly) in cabbage leaf assessed as mortality after 48 hr by leaf disk assay in presence of piperonyl butoxide. Conditions: foliar.
Assay [16] deals with Bemisia tabaci. The assay is described as follows: Resistant ratio, ratio of LC50 for T33 generation of B-biotype Bemisia tabaci (sweet potato whitefly) to LC50 for B-biotype Bemisia tabaci (sweet potato whitefly).
The subject of assay [17] is Bemisia tabaci. The experiment in a line: Resistant ratio, ratio of LC50 for T30 generation of B-biotype Bemisia tabaci (sweet potato whitefly) to LC50 for B-biotype Bemisia tabaci (sweet potato whitefly).
In assay [18] the test system is Bemisia tabaci. The experiment in a line: Insecticidal activity against B-biotype Bemisia tabaci (sweet potato whitefly) in cabbage leaf assessed as mortality after 48 hr by leaf disk assay. Conditions: foliar.
Assay [19] concerns Bemisia tabaci. The assay is described as follows: Insecticidal activity against T17 generation of B-biotype Bemisia tabaci (sweet potato whitefly) in cabbage leaf assessed as mortality after 48 hr by leaf disk assay. To be noted: foliar.
The test system of assay [20] is Bemisia tabaci. The assay is described as follows: Insecticidal activity against T28 generation of B-biotype Bemisia tabaci (sweet potato whitefly) in cabbage leaf assessed as mortality after 48 hr by leaf disk assay. Conditions: foliar.
Assay [21] deals with Bemisia tabaci. The experiment in a line: Insecticidal activity against T30 generation of B-biotype Bemisia tabaci (sweet potato whitefly) in cabbage leaf assessed as mortality after 48 hr by leaf disk assay. Conditions: foliar.
Assay [22] relates to Bemisia tabaci. The experiment in a line: Insecticidal activity against T33 generation of B-biotype Bemisia tabaci (sweet potato whitefly) in cabbage leaf assessed as mortality after 48 hr by leaf disk assay. Conditions: foliar.
For assay [23], the system named is Bemisia tabaci. The assay is described as follows: Resistant ratio, ratio of LC50 for T17 generation of B-biotype Bemisia tabaci (sweet potato whitefly) to LC50 for B-biotype Bemisia tabaci (sweet potato whitefly).
Assay [24] concerns Bemisia tabaci. The assay is described as follows: Resistant ratio, ratio of LC50 for T28 generation of B-biotype Bemisia tabaci (sweet potato whitefly) to LC50 for B-biotype Bemisia tabaci (sweet potato whitefly).

For orientation: LC50 means the concentration that kills 50% of the test population. In the case of `C/C(=N\C#N)N(C)Cc1ccc(Cl)nc1` [ACETAMIPRID], in assay [1], the RatioLC50 stood at 35.8. Further, the LC50 amounted to 70.9 µg/mL (≈ 318 µM) in assay [2] and 1.98 µg/mL (≈ 8.89 µM) in assay [3].
As for `CN1COCN(Cc2cnc(Cl)s2)/C1=N\[N+](=O)[O-]` [THIAMETHOXAM], the RatioLC50 in assay [4] is 0.99; in assay [5] it was 2.37; in assay [6], 3.14; in assay [7] it was 0.95; in [8] it was 1; in assay [9], 1.17. Moreover, the RatioLC50 came out at 25.6 in assay [1]; 66.3 in assay [16]; 25.6 in [17]; 9.62 in assay [23]; 19 in assay [24]. Besides, the LC50 in assay [10] came out at 452 µg/mL; in assay [11] it was 189 µg/mL; in assay [12], 143 µg/mL; in [13], 18.5 µg/mL; in assay [14] it was 17.6 µg/mL; in assay [15] it was 15 µg/mL. The 50% lethal concentration (LC50) in assay [2] came out at 450 µg/mL (≈ 1540 µM); in assay [3], 17.6 µg/mL (≈ 60.3 µM); in assay [18], 17.6 µg/mL (≈ 60.3 µM); in assay [19], 169 µg/mL (≈ 579 µM); in assay [20], 334 µg/mL (≈ 1140 µM); in [21] it was 451 µg/mL (≈ 1550 µM). The LC50 in assay [22] stood at 1160 µg/mL (≈ 3990 µM).
As to `CC1(C)[C@H](C(=O)O[C@H](C#N)c2cccc(Oc3ccccc3)c2)[C@@H]1C=C(Br)Br` [DELTAMETHRIN], in assay [1], the RatioLC50 was determined as 1.16. Also, the LC50 worked out at 810 µg/mL (≈ 1600 µM) in [2] and 701 µg/mL (≈ 1390 µM) in [3].
In the same order, the values of `CCOP(=S)(OCC)Oc1nc(Cl)c(Cl)cc1Cl` [CHLORPYRIFOS] are 1.03, 621 µg/mL (≈ 1770 µM) and 601 µg/mL (≈ 1710 µM).
On the same counts, the results for `O=[N+]([O-])/N=C1\NCCN1Cc1ccc(Cl)nc1` [IMIDACLOPRID] are 47.3, 412 µg/mL (≈ 1610 µM) and 8.72 µg/mL (≈ 34.1 µM).
On the same counts, the results for `CC[C@H](C)[C@H]1O[C@]2(C=C[C@@H]1C)C[C@@H]1C[C@@H](C/C=C(\C)[C@@H](O[C@H]3C[C@H](OC)[C@@H](O[C@H]4C[C@H](OC)[C@@H](O)[C@H](C)O4)[C@H](C)O3)[C@@H](C)/C=C/C=C3\CO[C@@H]4[C@H](O)C(C)=C[C@@H](C(=O)O1)[C@]34O)O2.CO[C@H]1C[C@H](O[C@H]2[C@H](C)O[C@@H](O[C@@H]3/C(C)=C/C[C@@H]4C[C@@H](C[C@]5(C=C[C@H](C)[C@@H](C(C)C)O5)O4)OC(=O)[C@@H]4C=C(C)[C@@H](O)[C@H]5OC/C(=C\C=C\[C@@H]3C)[C@]54O)C[C@@H]2OC)O[C@@H](C)[C@@H]1O` [ABAMECTIN] are 5.33, 0.64 µg/mL and 0.12 µg/mL.
Consider `CCCCN(CCCC)SN(C)C(=O)Oc1cccc2c1OC(C)(C)C2` [CARBOSULFAN], for which, in assay [1], the RatioLC50 turned out to be 4.43. For the same molecule, the LC50 was 1960 µg/mL (≈ 5140 µM) in assay [2] and 441 µg/mL (≈ 1160 µM) in assay [3].
In the same order, the values of `CCN(Cc1ccc(Cl)nc1)/C(=C/[N+](=O)[O-])NC` [NITENPYRAM] are 9.99, 22.2 µg/mL (≈ 82 µM) and 2.22 µg/mL (≈ 8.2 µM).
On the same counts, the results for `N#Cc1nn(-c2c(Cl)cc(C(F)(F)F)cc2Cl)c(N)c1[S+]([O-])C(F)(F)F` (stereo not drawn) [FIPRONIL] are 1.08, 4.45 µg/mL (≈ 10.2 µM) and 4.11 µg/mL (≈ 9.4 µM).

(Values after ChEMBL document CHEMBL3045463, “Cross-resistance study and biochemical mechanisms of thiamethoxam resistance in B-biotype Bemisia tabaci (Hemiptera: Aleyrodidae)” (2010).)
